The values below come from US20240228572A1 (i2o Therapeutics, Inc., priority 2020, published 2024).

Structures are written as SMILES. *1 amine or outer side, *2 acyl side, *3 side chain or, on linkers, in order; H or OH if unused. Where a SMILES comes first, the peptide text is derived from it. Bridges are numbered along the chain shown (N, C = ends). Side-chain parts run from the residue outwards. [ ]: non-standard residue; d: D form. The star is where a group is joined. C20 diacid = O=C(O)CCCCCCCCCCCCCCCCCCC(=O)*; γGlu = O=C(O)[C@H](CCC(=O)[*:2])N[*:1]; AEEA = NCCOCCOCC(=O)O; Aib = CC(C)(N)C(=O)O Some results are limits rather than exact numbers.

Assay [1] has as its target T1, human GLP-1 receptor (GLP-1R) (Homo sapiens, UniProt P43220).
T1 construct: expressed in transfected cells
The assay is described as follows: cAMP accumulation assay, CHO-K1 cells stably expressing human GLP-1R. It is filed as cell-based. The following applies: cAMP accumulation, mean pEC50, Table 10. For orientation: Cyclic AMP is a second messenger, typically raised through Gs and lowered through Gi signalling.

Assay [2] addresses T2, human Glucagon receptor (GCGR) (Homo sapiens, UniProt P47871).
T2 construct: A cDNA fragment encoding the full-length open reading frame of the human GCGR; expressed in transfected cells; host or cells: CHO-K1, pcDNA3.1+, Lipofectamine 2000
Nature of the assay: cAMP accumulation assay, CHO-K1 cells expressing human GCGR. In kind it is cell-based. The following applies: mean pEC50, Table 10. From the text:
In the presence of the non-specific cAMP/cGMP phosphodiesterase inhibitor, 3-isobutyl-1-methylxanthine (IBMX), accumulating cAMP can be measured in vitro using common detection methods. Thus, it is possible to estimate an in vitro potency (pEC50) for peptides activating each of these receptors using fit dose-response curves for cAMP accumulation.
A cDNA fragment encoding the full-length open reading frame of the cynomolgus monkey GLP-1R (Genebank accession #XM_028847603 was cloned into pcDNA3.1+ for expression in CHO-K1 cells. A cDNA fragment encoding the full-length open reading frame of the human GCGR (Genebank accession #NM_000160 was cloned into pcDNA3.1+ for expression in CHO-K1 cells. A cDNA fragment encoding the full-length open reading frame of the rat GCGR (Genebank accession #NM_12091 was cloned into pcDNA3.1+ for expression in CHO-K1 cells. A cDNA fragment encoding the full-length open reading frame of the cynomolgus monkey GCGR (Genebank accession #XM_005585255 was cloned into pcDNA3.1+ for expression in CHO-K1 cells.
On day 1, CHO-K1 cells were plated at 1.5 million cells per T75 flask in 90% F12-K media supplemented with 10% FBS. On day 3 cells were transfected with 40 mcg of each expression plasmid using Lipofectamine 2000 transfection reagent. On day 5, cells were dispensed at 1000 cells per well in white 384-well OptiPlates in 5 mcL of assay buffer consisting of 1×HBSS, 5 mM HEPES, 0.5 mM IBMX, and 0.1% casein.
Peptides were serially diluted 4-fold in assay buffer to final concentrations ranging from 1×10^−9 M to 9.5×10^−16 M. Two assay controls consisting of 50 mcM forskolin (cAMP system maximum) or assay buffer only (cAMP system minimum) were also prepared. Five microliters of each peptide-concentration, or assay control, was added to triplicate wells and incubated for thirty minutes at room temperature. During this incubation step a 4× europium labelled cAMP tracer solution and a 4× Ulight®-anti-cAMP solution (consisting of an anti-cAMP monoclonal antibody labelled with Ulight™ dye) was prepared according to the manufacturer's protocol (PerkinElmer LANCE Ultra cAMP kit). Following this incubation, 5 mcL europium labelled cAMP and 5 mcL Ulight anti-cAMP antibody was added to each well. The plate was covered to prevent evaporation and incubated for 60 minutes at room temperature in the dark. Plates were read on an Envision fluorescent plate reader (PerkinElmer).
Test values were first normalized to the system maximum and system minimum averaged values in Excel using the formula: (test value−system min average)/(system max average -system min average)*100. Normalized test values represent a baseline corrected percentage of the system maximum cAMP response induced by forskolin. Data from up to 3 replicate tests were analyzed for each peptide. Potency values were estimated using GraphPad Prism software (v7.04) by fitting data to a 4-parameter logistic curve model: Y=Bottom+(Top−Bottom)/(1+10^((LogEC50−X))). The Hill slope was constrained to 1.0. EC50 values were converted to pEC50 values using the formula: pEC50=−Log (EC50).

T1 sequence (P43220 24-463): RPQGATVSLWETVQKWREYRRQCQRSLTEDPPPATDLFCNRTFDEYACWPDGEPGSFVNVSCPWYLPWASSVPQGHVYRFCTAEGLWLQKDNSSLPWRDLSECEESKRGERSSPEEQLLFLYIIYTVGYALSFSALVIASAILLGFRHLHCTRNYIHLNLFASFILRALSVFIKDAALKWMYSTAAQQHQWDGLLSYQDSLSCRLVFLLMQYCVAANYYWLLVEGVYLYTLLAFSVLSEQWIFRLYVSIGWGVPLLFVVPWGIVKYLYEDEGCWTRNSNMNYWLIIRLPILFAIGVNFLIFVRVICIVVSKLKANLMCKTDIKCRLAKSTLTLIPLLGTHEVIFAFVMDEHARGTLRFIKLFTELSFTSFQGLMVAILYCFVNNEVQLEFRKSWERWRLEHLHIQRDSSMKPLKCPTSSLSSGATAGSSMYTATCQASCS
T2 sequence (P47871 26-477): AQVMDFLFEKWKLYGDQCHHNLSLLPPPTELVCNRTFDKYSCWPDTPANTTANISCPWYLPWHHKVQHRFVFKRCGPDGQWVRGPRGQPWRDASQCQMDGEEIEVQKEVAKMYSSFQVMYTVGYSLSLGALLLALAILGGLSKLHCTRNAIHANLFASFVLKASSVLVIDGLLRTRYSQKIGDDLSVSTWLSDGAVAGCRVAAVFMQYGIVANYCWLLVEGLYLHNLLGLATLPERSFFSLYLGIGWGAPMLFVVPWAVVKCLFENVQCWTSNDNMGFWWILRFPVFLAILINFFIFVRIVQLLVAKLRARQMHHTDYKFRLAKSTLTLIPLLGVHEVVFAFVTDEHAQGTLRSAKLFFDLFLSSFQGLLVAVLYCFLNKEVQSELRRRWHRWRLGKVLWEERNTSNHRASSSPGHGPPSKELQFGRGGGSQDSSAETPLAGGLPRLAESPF

As for `CC(C)C[C@H](NC(=O)[C@H](Cc1ccc(O)cc1)NC(=O)[C@H](CCCCN)NC(=O)[C@H](CO)NC(=O)[C@H](Cc1ccc(O)cc1)NC(=O)[C@H](CC(=O)O)NC(=O)[C@H](CO)NC(=O)[C@@H](NC(=O)[C@H](Cc1ccccc1)NC(=O)[C@@H](NC(=O)CNC(=O)[C@H](Cc1c[nH]cn1)NC(=O)[C@H](CO)NC(=O)[C@@H](N)Cc1ccc(O)cc1)[C@@H](C)O)[C@@H](C)O)C(=O)N[C@@H](CC(=O)O)C(=O)N[C@@H](CCCCNC(=O)CC[C@H](NC(=O)CC[C@H](NC(=O)COCCOCCNC(=O)CCCCCCCCCCCCCCCCCCC(=O)O)C(=O)O)C(=O)O)C(=O)N[C@@H](CCCCN)C(=O)N[C@@H](Cc1ccc(O)cc1)C(=O)N[C@@H](C)C(=O)N[C@@H](CCC(N)=O)C(=O)N[C@@H](CCC(=O)O)C(=O)N[C@@H](Cc1ccccc1)C(=O)NC(C)(C)C(=O)N[C@@H](CCCCN)C(=O)N[C@@H](Cc1c[nH]c2ccccc12)C(=O)N[C@@H](CC(C)C)C(=O)N[C@@H](CCC(=O)O)C(=O)N[C@@H](CC(=O)O)C(=O)N[C@@H](CCC(=O)O)C(=O)N1CCC[C@H]1C(=O)N[C@@H](CO)C(=O)N[C@@H](CO)C(=O)NCC(=O)N[C@@H](C)C(=O)N1CCC[C@H]1C(=O)N1CCC[C@H]1C(=O)N1CCC[C@H]1C(=O)N[C@@H](CO)C(=O)O` [Compound A9] (H-YSHGTFTSDYSKYLDK([γGlu-γGlu-AEEA-C20 diacid])KYAQEF[Aib]KWLEDEPSSGAPPPS-OH; N-terminus assumed), the EC50 is over 1 nM in assay [1] and 0.0251 nM in assay [2].
Regarding `CC(C)C[C@H](NC(=O)[C@H](Cc1ccc(O)cc1)NC(=O)[C@H](CCCCN)NC(=O)[C@H](CO)NC(=O)[C@H](Cc1ccc(O)cc1)NC(=O)[C@H](CC(=O)O)NC(=O)[C@H](CO)NC(=O)[C@@H](NC(=O)[C@H](Cc1ccccc1)NC(=O)[C@@H](NC(=O)CNC(=O)[C@H](Cc1c[nH]cn1)NC(=O)[C@H](CO)NC(=O)[C@@H](N)Cc1ccc(O)cc1)[C@@H](C)O)[C@@H](C)O)C(=O)N[C@@H](CC(=O)O)C(=O)N[C@@H](CCCCNC(=O)CC[C@H](NC(=O)CC[C@H](NC(=O)COCCOCCNC(=O)CCCCCCCCCCCCCCCCCCC(=O)O)C(=O)O)C(=O)O)C(=O)N[C@@H](CCCCN)C(=O)N[C@@H](Cc1ccc(O)cc1)C(=O)N[C@@H](C)C(=O)N[C@@H](CCC(N)=O)C(=O)N[C@@H](CCC(=O)O)C(=O)N[C@@H](Cc1ccccc1)C(=O)NC(C)(C)C(=O)N[C@@H](CO)C(=O)N[C@@H](Cc1c[nH]c2ccccc12)C(=O)N[C@@H](CC(C)C)C(=O)N[C@@H](CCC(=O)O)C(=O)N[C@@H](CC(=O)O)C(=O)N[C@@H](CCC(=O)O)C(=O)N1CCC[C@H]1C(=O)N[C@@H](CO)C(=O)N[C@@H](CO)C(=O)NCC(=O)N[C@@H](C)C(=O)N1CCC[C@H]1C(=O)N1CCC[C@H]1C(=O)N1CCC[C@H]1C(=O)N[C@@H](CO)C(=O)O` [Compound A10] (H-YSHGTFTSDYSKYLDK([γGlu-γGlu-AEEA-C20 diacid])KYAQEF[Aib]SWLEDEPSSGAPPPS-OH; N-terminus assumed), the half-maximal effective concentration (EC50) is over 1 nM in assay [1] and 0.0398 nM in assay [2].
Regarding `CC(C)C[C@H](NC(=O)[C@H](Cc1ccc(O)cc1)NC(=O)[C@H](CCCCN)NC(=O)[C@H](CO)NC(=O)[C@H](Cc1ccc(O)cc1)NC(=O)[C@H](CC(=O)O)NC(=O)[C@H](CO)NC(=O)[C@@H](NC(=O)[C@H](Cc1ccccc1)NC(=O)[C@@H](NC(=O)CNC(=O)[C@H](Cc1c[nH]cn1)NC(=O)[C@H](CO)NC(=O)[C@@H](N)Cc1ccc(O)cc1)[C@@H](C)O)[C@@H](C)O)C(=O)N[C@@H](CC(=O)O)C(=O)N[C@@H](CCCCNC(=O)CC[C@H](NC(=O)CC[C@H](NC(=O)COCCOCCNC(=O)CCCCCCCCCCCCCCCCCCC(=O)O)C(=O)O)C(=O)O)C(=O)N[C@@H](CCCCN)C(=O)N[C@@H](Cc1ccc(O)cc1)C(=O)N[C@@H](C)C(=O)N[C@H]1CCCCNC(=O)CC[C@@H](C(=O)N[C@@H](Cc2c[nH]c3ccccc23)C(=O)N[C@@H](CC(C)C)C(=O)N[C@@H](CCC(=O)O)C(=O)N[C@@H](CC(=O)O)C(=O)N[C@@H](CCC(=O)O)C(=O)N2CCC[C@H]2C(=O)N[C@@H](CO)C(=O)N[C@@H](CO)C(=O)NCC(=O)N[C@@H](C)C(=O)N2CCC[C@H]2C(=O)N2CCC[C@H]2C(=O)N2CCC[C@H]2C(=O)N[C@@H](CO)C(=O)O)NC(=O)[C@H](C(C)C)NC(=O)[C@H](Cc2ccccc2)NC(=O)[C@H](CCC(=O)O)NC1=O` [Compound A11] (H-YSHGTFTSDYSKYLDK([γGlu-γGlu-AEEA-C20 diacid])KYAKEFVEWLEDEPSSGAPPPS-OH; lactam 20-24), the half-maximal effective concentration (EC50) is over 1 nM in assay [1] and 0.002 nM in assay [2].
The like results for `CC(C)C[C@H](NC(=O)[C@H](Cc1ccc(O)cc1)NC(=O)[C@H](CCCCN)NC(=O)[C@H](CO)NC(=O)[C@H](Cc1ccc(O)cc1)NC(=O)[C@H](CC(=O)O)NC(=O)[C@H](CO)NC(=O)[C@@H](NC(=O)[C@H](Cc1ccccc1)NC(=O)[C@@H](NC(=O)CNC(=O)[C@H](Cc1c[nH]cn1)NC(=O)[C@H](CO)NC(=O)[C@@H](N)Cc1ccc(O)cc1)[C@@H](C)O)[C@@H](C)O)C(=O)N[C@@H](CC(=O)O)C(=O)N[C@@H](CCCCNC(=O)CC[C@H](NC(=O)CC[C@H](NC(=O)COCCOCCNC(=O)CCCCCCCCCCCCCCCCCCC(=O)O)C(=O)O)C(=O)O)C(=O)N[C@@H](CCCCN)C(=O)N[C@@H](Cc1ccc(O)cc1)C(=O)N[C@@H](C)C(=O)N[C@H]1CCC(=O)NCCCC[C@@H](C(=O)N[C@@H](Cc2c[nH]c3ccccc23)C(=O)N[C@@H](CC(C)C)C(=O)N[C@@H](CCC(=O)O)C(=O)N[C@@H](CC(=O)O)C(=O)N[C@@H](CCC(=O)O)C(=O)N2CCC[C@H]2C(=O)N[C@@H](CO)C(=O)N[C@@H](CO)C(=O)NCC(=O)N[C@@H](C)C(=O)N2CCC[C@H]2C(=O)N2CCC[C@H]2C(=O)N2CCC[C@H]2C(=O)N[C@@H](CO)C(=O)O)NC(=O)[C@H](C(C)C)NC(=O)[C@H](Cc2ccccc2)NC(=O)[C@H](CCC(=O)O)NC1=O` [Compound A12] (H-YSHGTFTSDYSKYLDK([γGlu-γGlu-AEEA-C20 diacid])KYAEEFVKWLEDEPSSGAPPPS-OH; lactam 20-24) were, in that order, over 1 nM and 0.00158 nM.
The like results for `CC(C)C[C@H](NC(=O)[C@H](Cc1ccc(O)cc1)NC(=O)[C@H](CCCCN)NC(=O)[C@H](CO)NC(=O)[C@H](Cc1ccc(O)cc1)NC(=O)[C@H](CC(=O)O)NC(=O)[C@H](CO)NC(=O)[C@@H](NC(=O)[C@H](Cc1ccccc1)NC(=O)[C@@H](NC(=O)CNC(=O)[C@H](Cc1c[nH]cn1)NC(=O)[C@H](CO)NC(=O)[C@@H](N)Cc1ccc(O)cc1)[C@@H](C)O)[C@@H](C)O)C(=O)N[C@@H](CC(=O)O)C(=O)N[C@@H](CCCCNC(=O)CC[C@H](NC(=O)CC[C@H](NC(=O)CCCCCCCCCCCCCCCCCCC(=O)O)C(=O)O)C(=O)O)C(=O)N[C@@H](CCCCN)C(=O)N[C@@H](Cc1ccc(O)cc1)C(=O)N[C@@H](C)C(=O)N[C@@H](CCC(N)=O)C(=O)N[C@@H](CCC(=O)O)C(=O)N[C@@H](Cc1ccccc1)C(=O)N[C@H](C(=O)NC(C)(C)C(=O)N[C@@H](Cc1c[nH]c2ccccc12)C(=O)N[C@@H](CC(C)C)C(=O)N[C@@H](CCC(=O)O)C(=O)N[C@@H](CC(=O)O)C(=O)N[C@@H](CCC(=O)O)C(=O)N1CCC[C@H]1C(=O)N[C@@H](CO)C(=O)N[C@@H](CO)C(=O)NCC(=O)N[C@@H](C)C(=O)N1CCC[C@H]1C(=O)N1CCC[C@H]1C(=O)N1CCC[C@H]1C(=O)N[C@@H](CO)C(=O)O)C(C)C` [Compound A13] (H-YSHGTFTSDYSKYLDK([γGlu-γGlu-C20 diacid])KYAQEFV[Aib]WLEDEPSSGAPPPS-OH) were, in that order, over 1 nM and 0.001 nM.

What is called EC50 is the concentration that produces a half-maximal response. A higher EC50 goes with weaker potency.
